The values that follow come from patent publication US12215354B2, “Differentiation of human embryonic stem cells into single hormonal insulin positive cells” (Janssen Biotech, Inc., priority 2011, dated 2025).

The test system of this assay is human embryonic stem cell line H1. Put plainly: Real-time PCR gene expression, ascorbic acid at stages 3-5 (Example 11). It is filed as cell-based. The note with it: at stages 4-5. The method, then:
Cells of the human embryonic stem cell line H1 at various passages (passage 40 to passage 52) were seeded as single cells at a density of 100,000 cells/cm^2 on MATRIGEL™ (1:30 dilution) coated dishes in mTesr™1 media and 10 μM of Y27632. Forty eight hours post seeding, cultures were differentiated into pancreatic endocrine lineage as follows: • a. Stage 1 (Definitive Endoderm (DE)−3 days): Prior to start of DE, the cultures were washed and incubated with incomplete PBS (no Mg or Ca) for 30 seconds followed by addition of the stage 1 media. Human embryonic stem cells cultured as single cells on MATRIGEL™-coated dishes were treated with MCDB-131 medium supplemented with 0.1% fatty acid-free BSA, 0.0012 g/ml sodium bicarbonate, 1× GLUTAMAX™, 5 mM D-Glucose, 100 ng/ml GDF8, and 1 μM MCX compound (GSK3B inhibitor) for one day. Cells were then treated with MCDB-131 medium supplemented with 0.1% fatty acid-free BSA, 0.0012 g/ml sodium bicarbonate, 1× GLUTAMAX™, 5 mM glucose, 100 ng/ml GDF8, and 100 nM MCX compound for day two, followed by an additional day in MCDB-131 medium supplemented with 0.1% fatty acid-free BSA, 0.0012 g/ml sodium bicarbonate, 1× GLUTAMAX™, 5 mM Glucose, and 100 ng/ml GDF8. • b. Stage 2 (Primitive gut tube−2 days): Stage 1 cells were treated with MCDB-131 medium supplemented with 0.1% fatty acid-free BSA, 0.0012 g/ml sodium bicarbonate, 1× GLUTAMAX™, 5 mM D-Glucose, and 25 ng/ml FGF7 for two days. • c. Stage 3 (Foregut−2 days): Stage 2 cells were treated with MCDB-131 medium supplemented with 1:200 dilution of ITS-X, 2.5 mM Glucose, 1× GLUTAMAX™, 0.0015 g/ml sodium bicarbonate, 2% fatty acid-free BSA, 10 ng/ml Activin A, 25 ng/ml FGF7, 0.25 μM SANT-1, 1 μM RA, 200 nM TPB (PKC activator), 100 nM LDN-193189 (BMP receptor inhibitor) for one day. Cells were then treated with MCDB-131 medium supplemented with 1:200 dilution of ITS-X, 2.5 mM Glucose, 1× GLUTAMAX™, 0.0015 g/ml sodium bicarbonate, 2% fatty acid-free BSA, 10 ng/ml Activin A, 25 ng/ml FGF7, 0.25 μM SANT-1, 1 μM RA, 200 nM TPB (PKC activator), 10 nM LDN-193189 for an additional day. […]
A general note: Real-time PCR tracks product formation cycle by cycle.

Where [1] appears, read: ascorbic acid added at stage 3 or at stages 3 and 4.

With `O=C1O[C@H]([C@@H](O)CO)C(O)=C1O` [ascorbic acid], the “expression of pancreatic endoderm markers PDX-1 and NKX6.1” value (0.25 mM ascorbic acid) is listed as “not significantly altered”. In addition, under setting [1], the expression of insulin result was “increasing”; the “expression of somatostatin and glucagon” value is given as “significantly decreased”.
